Source: patent US10391150B2, “Treatments for migraine and related disorders” (The University of Chicago, priority 2011, dated 2019)

B1: Interferon-gamma (protein, listed as Homo sapiens)
chain: MKYTSYILAFQLCIVLGSLGCYCQDPYVKEAENLKKYFNAGHSDVADNGTLFLGILKNWKEESDRKIMQSQIVSFYFKLFKNFKDDQSIQKSVETIKEDMNVKFFNSNKKKRDDFEKLTNYSVTDLNVQRKAIHELIQVMAELSPAAKTGKRKRSQMLFRGRRASQ

Columns and labels:
Format in all cases: cell-based, rat
[1] = test system: CA3 pyramidal neuron spontaneous activity; assay: Spontaneous CA3 pyramidal neuron spiking / bursting in slice cultures
Method: FIGS. 12a-12e IGF-1 increased spontaneous neuronal spiking activity. (FIG. 12a) Exemplary recording of unstimulated control CA3 pyramidal layer spontaneous electrophysiological activity. (FIG. 12b) Exemplary recording of 3-day IGF-1-exposed CA3 pyramidal layer spontaneous electrophysiological activity. […] Seven day treatments consisted of IGF-1 exposure for only 12 hours daily. Comparisons between groups made via ANOVA plus Holm-Sidak post hoc testing.

TNF-α mRNA = TNF-α mRNA after SD in slice cultures; conditions: two hours after SD evoked every 7-9 minutes for an hour
Excerpt: This prompted the inventors to examine whether insulin could reduce SD susceptibility by increasing CA3 pyramidal neuron bursting. The inventors induced SD trans-synaptically in rat HSC using electrical stimuli (100 μs pulses @ 10 Hz for 1 s) ranging from 1 to 10,000 nC in order to determine SD threshold in sham and experimental groups (Pusic et al., 2011). Results were based on n≥3-6/group. […] This insulin dose approximates the pharmacological levels seen in humans treated with nasal insulin. […] The inventors hypothesized that the effect of insulin occurred through IGF-1 receptor cross-talk.
After an hour of SD, slices were allowed to recover for 2 hours and then harvested for total RNA isolation and PCR amplification of cytokine targets. […] Next, dilution curve amplifications of primers were checked to be sure primers produced uniform amplification differences. For example, optimal amplifications show a uniform increase in Ct thresholds. In contrast, amplifications are not uniform with defective primers.
These positive samples were used for PCR array screening. Next, PCR array technology was used as a means more sensitive than traditional gene chips to look for evidence of T-cells in adult hippocampal slice cultures. The gene expression screen for inflammatory cytokine changes was completed by RT^2 Profiler™ PCR Arrays.

[2] = test system: OS in microglia and astrocytes of hippocampal slice cultures; assay: Cell-specific OS from SD (CellROX, confocal microscopy); conditions: IGF-1 100 ng/mL for three days
Excerpt: FIG. 13 Oxidative stress from SD preferentially rises in astrocytes and microglia, with the latter effect mitigated by IGF-1. The inventors have recently shown that spreading depression (SD), the most likely cause of migraine aura and perhaps migraine (Lauritzen and Kraig, 2005), occurs with increased oxidative stress (OS) and that OS, in turn, increases SD susceptibility (Grinberg et al., 2012). Reactive oxygen and nitrogen species that cause OS have both autocrine and paracrine signaling capacities that can affect SD susceptibility by altering excitability (Kishida and Klann, 2007). Accordingly, the inventors looked for the cellular origin of OS from SD. Here the inventors used hippocampal slice cultures (HSC) to probe for cell-specific changes in OS from SD. SD was induced trans-synaptically in rat HSCs using bipolar electrical stimuli at the dentate gyrus (Pusic et al., 2011). Six SDs were induced every 7-9 min over an hr, followed by 24 hr incubation in CellROX™, a fixable fluorogenic probe for measuring OS (Grinberg et al., 2012). HSCs were then fixed in 10% buffered formalin phosphate. Other fixatives (PLP, 4% paraformaldehyde) prevented detection of OS change. Tissue was then labeled for neurons (anti-NeuN), oligodendrocytes (anti-RIP), astrocytes (anti-GFAP), or for microglia (isolectin GS-IB4). […]

glutathione = assay: Slice culture glutathione by Thiol Tracker; conditions: pulsed exposure to IFN-γ or exosomes from IFN-γ-pulsed slice cultures
Excerpt: FIGS. 17A-17B. Detection of an IFN-γ-induced rise in slice culture glutathione using Thiol Tracker™, a fluorescent indicator of glutathione. […] (FIG. 17B) Furthermore, this increase is significant (p<0.001; n≥5/group) and can be mimicked by exposure to exosomes isolated from slice cultures activated by pulsed-exposure to IFN-γ.
Since stimulated immune cells release exosomes that are capable of reducing OS in recipient cells, the inventors next tested whether IFN-γ stimulated slice cultures (and possibly their microglia) to release exosomes that mimicked the effects of IFN-γ. […] IFN-γ, when pulsed onto slice cultures for 12 hours triggers the release of nutritive exosomes that mimic the effect of pulsed exposure to IFN-γ (16, 17). Since pulsed-exposure to IFN-γ reduces OS and glutathione is a naturally occurring inhibitor of neutral sphingomyelinase, the inventors probed for an IFN-γ-induced rise in slice culture glutathione using Thiol Tracker™, a fluorescent indicator of glutathione (FIG. 17).

Molecule | spontaneous CA3 pyramidal neuron bursting versus control ([1]; 3-day IGF-1 treatment) | spontaneous CA3 pyramidal neuron bursting versus control ([1]; 7-day IGF-1 treatment, 12 hours daily) | spontaneous CA3 pyramidal neuron spiking versus control ([1]; acute IGF-1 treatment) | TNF-α mRNA levels (TNF-α mRNA) | OS from SD in microglia [2] | astrocytic OS from SD [2] | slice culture / microglial glutathione (glutathione)
Insulin-like growth factor 1 [IGF-1] | increase in spontaneous CA3 pyramidal neuron bursting | increase in spontaneous CA3 pyramidal neuron bursting | increase in spontaneous CA3 pyramidal neuron spiking | did not involve a change in TNF-α mRNA levels | decreased | unchanged | 
B1 |  |  |  |  |  |  | selectively increases microglial glutathione
